Where two headings read alike, the source gives them in different places.
What was measured:
[1] = test system: Huntingtin (HTT) transcripts; test: Quantitative splicing assay (HTT), qPCR; assay type: cell-based; settings: Homo sapiens, GM04724 (CAG 70/20) Huntington's disease patient lymphoblasts, 24 h
Summary of the method: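 GM04724 HD patient lymphoblasts (CAG 70/20) dosed 24 h with compound from 2.5 uM to 0.15 nM (0.1% DMSO). Lysates converted to cDNA; TaqMan qPCR measured compound-induced inclusion of a cryptic exon in HTT intron 49.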

mHTT protein = mHTT protein assay (2B7-MW1, Mesoscale Discovery); assay type: cell-based, human; settings: GM04724 (CAG 70/20) Huntington's disease patient lymphoblast cells, 48 hours, 2B7-MW1 MSD; read-out: HTT Potency - Protein EC50 mHTT (average)
Summary of the method: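 GM04724 Huntington's patient lymphoblasts (CAG 70/20) were treated for 48 h at 10 μM to 0.6 nM. mHTT was quantified by 2B7-MW1 MSD immunoassay, whose signal depends on polyQ expansion and HTT fragment size. Viability was run on a parallel plate by CellTiter-Glo.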

[2] = test system: MDR1-MDCK cell monolayers; test: MDCK-MDR1 permeability assay (BBB penetration potential); assay type: in vitro ADME; settings: dog, MDCK-MDR1, 120 min, 5 μM, pH 7.4
Experimental: (§1) Each determination is performed in duplicate. […] Analytical conditions are outlined below.

MDR1 = test: as above; assay type: in vitro ADME; settings: dog; for efflux ratio at 120 min, 5 μM: MDCK-MDR1, pH 7.4, MDCK-MDR1: Efflux; for Papp A→B at 120 min, 5 μM: MDCK-MDR1, pH 7.4, MDCK-MDR1: Papp A-B; for Papp B→A at 120 min, 5 μM: MDCK-MDR1, pH 7.4, MDCK-MDR1: Papp B-A
Experimental: as §1

[3] = qPCR HTTex49_50, read-out: HTT Potency - Splicing: E49-50 EC50 (average)
[4] = qPCR cryptic exon 49b inclusion, read-out: HTT Potency - Splicing: E49b EC50 (average)

Row | Compound | EC50 [1, 3] [nM] | EC50 [1, 4] [nM] | EC50 (mHTT protein) [nM] | MDCK-MDR1: % Recov A-B [2] [%] | MDCK-MDR1: % Recov B-A [2] [%] | efflux ratio at 120 min, 5 μM (MDR1) | Papp A→B at 120 min, 5 μM (MDR1) [×10⁻⁶ cm/s] | Papp B→A at 120 min, 5 μM (MDR1) [×10⁻⁶ cm/s]
1 | Cn1ccc2cc(O)c(-c3ccc(O[C@@H]4C[C@@]5(C)CC[C@](C)(N5)[C@@H]4F)nn3)cc2c1=O (single isomer, unassigned) [130-ENT2] | 16 to 50 | 16 to 50 | 0.01 to 15 | 78 | 79 | 5 | 9.9 | 49.6
2 | Cn1cnc2cc(O)c(-c3ccc(O[C@H]4C[C@]5(C)CCC[C@@](C)(N5)[C@H]4F)nn3)cc2c1=O (single isomer, unassigned) [133-ENT1] | 101 to 500 | 51 to 100 | 0.01 to 15 | 81 | 87 | 10 | 4.98 | 52.4
3 | Cn1cnc2cc(O)c(-c3ccc(O[C@@H]4C[C@@]5(C)CCC[C@](C)(N5)[C@@H]4F)nn3)cc2c1=O (single isomer, unassigned) [133-ENT2] | 51 to 100 | 51 to 100 | 0.01 to 15 | 92 | 90 | 12 | 5.25 | 60.9
4 | CNC(=O)c1ccc2cc(-c3ccc(O[C@@H]4C[C@H]5CCC[C@H](N5)[C@@H]4F)nn3)c(O)cc2n1 (single isomer, unassigned) [136-ENT2] | 0.01 to 15 | 16 to 50 | 0.01 to 15 | 88 | 93 | 25 | 2.1 | 52.1
5 | Cn1cnc(-c2ccc(-c3ccc(O[C@@H]4C[C@@]5(C)CCC[C@](C)(N5)[C@@H]4F)nn3)c(O)c2)cc1=O (single isomer, unassigned) [139-ENT1] | 16 to 50 | 16 to 50 | 0.01 to 15 | 75 | 75 | 14 | 2.36 | 32.1
6 | Oc1cc(-c2nnco2)ccc1-c1ccc(O[C@H]2C[C@@H]3CC[C@@H](N3)[C@H]2F)nn1 (single isomer, unassigned) [140-ENT1] | 101 to 500 | 101 to 500 | 101 to 500 | 92 | 95 | 2 | 18.1 | 43.3
7 | C[C@@]12CCC[C@@](C)(N1)[C@@H](F)[C@@H](Oc1ccc(-c3ccc(-c4cn[nH]c4)cc3O)nn1)C2 (single isomer, unassigned) [147-ENT1] | 0.01 to 15 | 0.01 to 15 | 0.01 to 15 | 78 | 83 | 13 | 4.61 | 58.1
8 | C[C@]12CCC[C@](C)(N1)[C@H](F)[C@H](Oc1ccc(-c3ccc(-c4cn[nH]c4)cc3O)nn1)C2 (single isomer, unassigned) [147-ENT2] | 0.01 to 15 | 0.01 to 15 | 0.01 to 15 | 71 | 80 | 13 | 4.46 | 58.1
9 | Cn1ccc(-c2ccc(-c3ccc(O[C@H]4C[C@]5(C)CCC[C@@](C)(N5)[C@H]4F)nn3)c(O)c2)cc1=O (single isomer, unassigned) [149-ENT1] | 51 to 100 | 16 to 50 | 16 to 50 | 76 | 79 | 22 | 2.23 | 48.6
